The results in this text go back to publication PMC8658773, “Two New Isoprenoid Flavonoids from Sophora flavescens with Antioxidant and Cytotoxic Activities” (Molecules, 2021).

SMILES strings stand for the structures.

One assay has as its system HepG2 cells. Nature of the assay: Cytotoxic activity (MTS assay), HepG2. The class given is cell-based, human. As to conditions: Homo sapiens, HepG2, 10 µM; SD in brackets; read-out: HepG2 cell inhibitory activity (Table S4). A general note: Tetrazolium assays rely on reduction of a dye to a coloured formazan, in cell work by metabolically active cells.
A further assay relates to LO2 cells. Briefly: Cytotoxic activity (MTS assay), LO2 normal cells. It counts as cell-based, human. As to conditions: Homo sapiens, L02; 10 µM; SD in brackets; read-out: LO2 cell inhibitory activity (Table S7).
Assay [1] is described as follows: PTIO free radical scavenging assay. It counts as biochemical. The settings on record: for PTIO radical scavenging activity (inhibition rate): 8 μg/mL, SD in brackets. How it is done:
PTIO free radical scavenging was also performed following previous reports with some modification. VC was used as the positive control. PTIO radicals were dissolved with phosphate buffer (PBS) (pH 7.4, 50 mM) with a concentration of 0.05 mg/mL. Then, the samples (40 µL, 40 µg/mL) and PTIO solution (160 µL) were added into 96-well plates (as the value of Ai). After being thoroughly mixed, the reaction solution was incubated at 37 °C in a water-bath for 2 h. Then, the absorbance was measured at 557 nm. PTIO free radical scavenging was calculated using the above equation. (40 µL PBS with 160 µL PTIO as A0, 40 µL compounds with 160 µL PBS as Aj).

A further assay concerns MCF7 cells. Briefly: Cytotoxic activity (MTS assay), MCF7. The class given is cell-based, human. The settings on record: Homo sapiens, MCF7; 10 µM; SD in brackets; read-out: MCF-7 cell inhibitory activity (Table S6).
Assay [2] can be described thus: ABTS free radical scavenging assay. It counts as biochemical. As to conditions: for ABTS radical scavenging activity (inhibition rate): 20 μg/mL, SD in brackets. How it is done:
The third assay, the ABTS free radical scavenging screen was performed by previous experiments with slight changes. First, we needed to prepare for the ABTS^+ solution. […] Then, they were mixed with equal volume at room temperature and kept away from light for 12 h, the mixed solution was diluted with ethanol until the absorbance of […]. Thus, the ABTS^+ solution was obtained. Furthermore, the compounds (100 µL, 40 µg/mL) with ABTS^+ solution (100 µL) were also added to the 96-well plates (as the value of Ai) and were interacted for 10 min at room temperature in the dark, then the absorbance at 734 nm was measured. VC was used as the positive control. Antioxidant capacity was calculated according to the first formula (the value of 100 µL ethanol with 100 µL ABTS^+ solution as A0, the value of 100 µL compounds with 100 µL ethanol as Aj). All experiments were carried out in triplicate.

Assay [3] in a line: DPPH free radical scavenging assay. The class given is biochemical. As to conditions: for DPPH radical scavenging activity (inhibition rate): 20 μg/mL, SD in brackets. As to the method:
The in vitro antioxidant activity tests were conducted according to previous reports. Among them, the DPPH free radical scavenging assay was slightly modified. Briefly, the DPPH material was precisely weighed, ethanol solution was added to obtain a concentration of 0.1 mmol/L (to use immediately, or store in the dark). Then, the compounds (100 µL, 40 µg/mL) with DPPH solution (100 µL) (Ai) were added to 96-well plates and incubated for 30 min at room temperature. Subsequently, the activity was measured using the Thermo Scientific Varioskan LUX ([…], VL0L00D0, USA), with an absorbance of 570 nm. Vitamin C (VC) (40 µg/mL) was used as the positive control.
On the technique in general: DPPH is a stable violet radical that fades when it is reduced.

The test system of the next assay is A549 cells. Nature of the assay: Cytotoxic activity (MTS assay), A549. It counts as cell-based, human. The settings on record: Homo sapiens, A549; 10 µM; SD in brackets; read-out: A549 cell inhibitory activity (Table S5).

As for `COc1ccc(-c2coc3cc(O)ccc3c2=O)cc1` [Compound 20, formononetin], the inhibition at 10 µM with HepG2 cells was 1.4%; with LO2 cells, 5.8%; with MCF7 cells, 8.7%; with A549 cells, -6.2%. Also, the “PTIO radical scavenging activity (inhibition rate)” value in assay [1] is given as 36.2% (2.0%). Besides, in assay [2], the “ABTS radical scavenging activity (inhibition rate)” value was 23.3% (0.9%). Further, the “DPPH radical scavenging activity (inhibition rate)” value in assay [3] is listed as 20.2% (1.0%).

For `COc1ccc(-c2coc3cc(O)cc(O)c3c2=O)cc1` [Compound 21, biochanin A], the inhibition at 10 µM in the assay with HepG2 cells was 7.1%; in the assay on LO2 cells, 5.8%; in the assay with MCF7 cells, 1%; with A549 cells it was 8.7%. The “PTIO radical scavenging activity (inhibition rate)” value in assay [1] is given as 37.9% (0.6%). In assay [2], the “ABTS radical scavenging activity (inhibition rate)” value is 76.4% (1.3%). Besides, the “DPPH radical scavenging activity (inhibition rate)” value in assay [3] is reported as 46.8% (1.8%).

For `O=c1ccc2ccc(O)cc2o1` [Compound 24, 7-hydroxycoumarin], the inhibition at 10 µM is -0.3% in the assay with LO2 cells, 5.7% in the assay with MCF7 cells and 21.4% in the assay on A549 cells. In assay [1], the “PTIO radical scavenging activity (inhibition rate)” value was 36.6% (3.1%). Besides, the “ABTS radical scavenging activity (inhibition rate)” value in assay [2] is recorded as 16.8% (3.2%). Besides, in assay [3], the “DPPH radical scavenging activity (inhibition rate)” value is on record as 25.2% (3.7%).

With `O=c1cc(-c2ccc(O)c(O)c2)oc2cc(O)cc(O)c12` [Compound 23, luteolin], the inhibition at 10 µM in the assay with HepG2 cells is 1.1%; in the assay on LO2 cells, 19.8%; in the assay with MCF7 cells, -4.7%; in the assay on A549 cells, 41.3%. Further, the “PTIO radical scavenging activity (inhibition rate)” value in assay [1] is listed as 43.3% (2.0%). Also, the “ABTS radical scavenging IC50” value in assay [2] came to 1.51 µg/mL. In addition, the “DPPH radical scavenging IC50” value in assay [3] came to 0.90 µg/mL.

Turning to `COc1cc(O)c(CC=C(C)C)c2oc(-c3ccc(O)cc3)c(O)c(=O)c12` [Compound 14, sophoflavescenol], the inhibition at 10 µM in the assay on HepG2 cells is 11.4%; in the assay with LO2 cells, 5.5%; in the assay on MCF7 cells, 2.8%; in the assay on A549 cells, 6.9%. Also, the “PTIO radical scavenging IC50” value in assay [1] is 5.51 µg/mL. Besides, in assay [1], the “PTIO radical scavenging activity (inhibition rate)” value was 55.0% (9.4%). Besides, in assay [2], the “ABTS radical scavenging IC50” value was found to be 2.91 µg/mL. In addition, the “DPPH radical scavenging IC50” value in assay [3] worked out at 3.52 µg/mL.

Turning to `O=c1c(-c2ccc(O)cc2)coc2cc(O)cc(O)c12` [Compound 18, genistein], the inhibition at 10 µM with HepG2 cells was 1%; with LO2 cells, 5%; in the assay with MCF7 cells, 4.3%; in the assay with A549 cells, 6.6%. Moreover, the “PTIO radical scavenging activity (inhibition rate)” value in assay [1] is given as 35.8% (2.0%). Besides, the “ABTS radical scavenging activity (inhibition rate)” value in assay [2] is 69.0% (1.4%). Also, the “DPPH radical scavenging activity (inhibition rate)” value in assay [3] is reported as 28.0% (6.2%).

As for `COc1ccc(-c2coc3cc(O)ccc3c2=O)cc1O` [Compound 19, calycosin], the figures for the inhibition at 10 µM in the assay on HepG2 cells, in the assay on LO2 cells and in the assay on A549 cells were 4.3%, 16.6% and 6.4%, respectively. Moreover, the “PTIO radical scavenging activity (inhibition rate)” value in assay [1] is on record as 37.0% (0.7%). Further, the “ABTS radical scavenging activity (inhibition rate)” value in assay [2] is recorded as 51.3% (2.4%). The “DPPH radical scavenging activity (inhibition rate)” value in assay [3] is recorded as 25.6% (1.1%).

For `O=C(/C=C/c1ccc(O)cc1)c1ccc(O)cc1O` [Compound 8, isoliquiritigenin], the inhibition at 10 µM in the assay with HepG2 cells is 1.7%; with LO2 cells it was -2.1%; in the assay on MCF7 cells it was 7.2%; with A549 cells, -5.7%.

With `O=C(O)c1ccc(O)cc1O` [Compound 27, b-resorcylic acid], the inhibition at 10 µM in the assay on HepG2 cells worked out at 1.9%; in the assay on LO2 cells, 1.9%; with MCF7 cells, 14.1%; in the assay with A549 cells it was 22.8%. The “ABTS radical scavenging activity (inhibition rate)” value in assay [2] is 63.4% (1.4%). Besides, in assay [3], the “DPPH radical scavenging activity (inhibition rate)” value is recorded as 23.1% (2.5%).

With `O=C1O[C@H]([C@@H](O)CO)C(O)=C1O` [VC, vitamin C, reference compound], the “DPPH radical scavenging activity (inhibition rate)” value in assay [3] was 97%.
